Data as given in ChEMBL document CHEMBL1201862, “PubChem BioAssay data set” (2004).
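Grown in 96-well plates, cells were treated for 48 hours with each compound at five concentrations. Insufficient inhibition: endpoint recorded as highest concentration tested. GI50 is the concentration that inhibits growth by half.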 The source made the active and inactive calls. Rule as the data show it: active = GI50 up to about 1.1 µM and inactive = higher.

Legend:
Assay in all cases: inhibition of tumour cell growth, NCI panel, 48 h
[1] = test system: UO-31
[2] = test system: NCI-H23
[3] = test system: UACC-62
[4] = test system: CCRF-CEM
[5] = test system: OVCAR-4
[6] = test system: SK-MEL-2
[7] = test system: RPMI-8226
[8] = test system: SNB-75
[9] = test system: ACHN
[10] = test system: SK-OV-3
[11] = test system: NCI-H522
[12] = test system: SNB-19
[13] = test system: HOP-62
[14] = test system: SW-620
[15] = test system: A549
[16] = test system: KM12
[17] = test system: RXF 393
[18] = test system: U-251
[19] = test system: SF-539
[20] = test system: IGROV-1

Row | Structure (SMILES) | GI50 [1] | GI50 [2] | GI50 [3] | GI50 [4] | GI50 [5] | GI50 [6] | GI50 [7] | GI50 [8] | GI50 [9] | GI50 [10] | GI50 [11] | GI50 [12] | GI50 [13] | GI50 [14] | GI50 [15] | GI50 [16] | GI50 [17] | GI50 [18] | GI50 [19] | GI50 [20]
1 | CCN(CC)c1cccc2c1/C(=N/O)CCCC2 | > 100 µM (inactive) | > 100 µM (inactive) | > 100 µM (inactive) | > 100 µM (inactive) | > 100 µM (inactive) | > 100 µM (inactive) | 56.2 µM (inactive) | 84.1 µM (inactive) | > 100 µM (inactive) | > 100 µM (inactive) | > 100 µM (inactive) | > 100 µM (inactive) | > 100 µM (inactive) | > 100 µM (inactive) | > 100 µM (inactive) | > 100 µM (inactive) | 90.2 µM (inactive) | > 100 µM (inactive) | – | –
2 | CC1=CC(C)C(C)N(CC2=NCCN2)c2ccccc21 (stereo unspecified) | 47.3 µM (inactive) | > 100 µM (inactive) | 49.3 µM (inactive) | 45.6 µM (inactive) | > 100 µM (inactive) | 44.8 µM (inactive) | 38.7 µM (inactive) | 46 µM (inactive) | 97.9 µM (inactive) | 96.8 µM (inactive) | 29.2 µM (inactive) | > 100 µM (inactive) | > 100 µM (inactive) | > 100 µM (inactive) | > 87.3 µM (inactive) | > 68.4 µM (inactive) | 27.6 µM (inactive) | 76.6 µM (inactive) | 62.1 µM (inactive) | > 100 µM (inactive)
3 | c1ccc(CNc2ncnc3nn[nH]c23)cc1 | 91 µM (inactive) | > 100 µM (inactive) | > 100 µM (inactive) | > 100 µM (inactive) | > 100 µM (inactive) | > 100 µM (inactive) | – | > 100 µM (inactive) | > 100 µM (inactive) | > 100 µM (inactive) | > 100 µM (inactive) | > 100 µM (inactive) | > 100 µM (inactive) | > 100 µM (inactive) | > 100 µM (inactive) | > 100 µM (inactive) | > 100 µM (inactive) | > 100 µM (inactive) | > 100 µM (inactive) | > 100 µM (inactive)
4 | C=C1C(=O)OC2CC1CCC1(C)OC1CCC(C)=CCCC2(C)O (stereo unspecified) | 9.04 µM (inactive) | 1.79 µM (inactive) | 3.4 µM (inactive) | 1.03 µM (active) | 4.78 µM (inactive) | 6.12 µM (inactive) | 1.51 µM (inactive) | 7.08 µM (inactive) | – | 16.7 µM (inactive) | 1.06 µM (active) | 14.1 µM (inactive) | 10.3 µM (inactive) | 1.12 µM (inactive) | 8.36 µM (inactive) | 5.52 µM (inactive) | 1.2 µM (inactive) | 11.8 µM (inactive) | 4.62 µM (inactive) | 7.18 µM (inactive)
5 | COc1cc2c(ccc3c4cc(OC)c(OC)cc4c[n+](C)c23)cc1O [FAGARONINE] | > 72.8 µM (inactive) | 7.76 µM (inactive) | 1.23 µM (inactive) | 2.02 µM (inactive) | 12.2 µM (inactive) | 41.4 µM (inactive) | > 65.3 µM (inactive) | 2.9 µM (inactive) | – | 21.6 µM (inactive) | 0.131 µM (active) | 1.15 µM (inactive) | 2.3 µM (inactive) | 12.7 µM (inactive) | 19.9 µM (inactive) | > 75 µM (inactive) | 30 µM (inactive) | 0.264 µM (active) | 2.88 µM (inactive) | 23.2 µM (inactive)
6 | C=CCCN1CCc2c([nH]c3ccccc23)C1C(=O)O (stereo unspecified) | > 100 µM (inactive) | 78 µM (inactive) | > 100 µM (inactive) | 96.2 µM (inactive) | > 100 µM (inactive) | > 100 µM (inactive) | – | 26.9 µM (inactive) | > 100 µM (inactive) | > 100 µM (inactive) | > 100 µM (inactive) | > 100 µM (inactive) | > 100 µM (inactive) | > 100 µM (inactive) | > 100 µM (inactive) | > 100 µM (inactive) | > 100 µM (inactive) | > 100 µM (inactive) | > 100 µM (inactive) | > 100 µM (inactive)
7 | Cn1c2ccc([N+](=O)[O-])cc2c(=O)n1Cc1ccccc1F | 37.9 µM (inactive) | 48 µM (inactive) | 48.5 µM (inactive) | 46.6 µM (inactive) | 47.8 µM (inactive) | 53.8 µM (inactive) | > 100 µM (inactive) | 20.9 µM (inactive) | 53.3 µM (inactive) | > 100 µM (inactive) | 24.5 µM (inactive) | 33.5 µM (inactive) | 57 µM (inactive) | > 100 µM (inactive) | 44.3 µM (inactive) | 35.3 µM (inactive) | 61 µM (inactive) | 37.7 µM (inactive) | 25.2 µM (inactive) | 35.1 µM (inactive)
8 | COC(=O)[C@H](Cc1ccccc1)NC(=O)N(CCNC(=O)OC(C)(C)C)c1ccccc1 | > 100 µM (inactive) | > 100 µM (inactive) | > 100 µM (inactive) | > 100 µM (inactive) | > 100 µM (inactive) | > 100 µM (inactive) | > 100 µM (inactive) | > 100 µM (inactive) | > 100 µM (inactive) | > 100 µM (inactive) | > 100 µM (inactive) | > 100 µM (inactive) | > 100 µM (inactive) | > 100 µM (inactive) | > 100 µM (inactive) | > 100 µM (inactive) | 87.1 µM (inactive) | > 100 µM (inactive) | – | > 100 µM (inactive)
9 | O=[N+]([O-])c1ccc(N2N=C(c3ccc(NCc4nc5ccccc5[nH]4)cc3)CC2c2ccco2)cc1 (stereo unspecified) | 6.53 µM (inactive) | 19.9 µM (inactive) | 19.5 µM (inactive) | 21.6 µM (inactive) | 20.2 µM (inactive) | > 10 µM (inactive) | 12.4 µM (inactive) | 27.9 µM (inactive) | 22.8 µM (inactive) | 82.2 µM (inactive) | 15.5 µM (inactive) | 23.4 µM (inactive) | 37.2 µM (inactive) | 34.7 µM (inactive) | 34.8 µM (inactive) | 16.7 µM (inactive) | 42.2 µM (inactive) | 29.8 µM (inactive) | 26.1 µM (inactive) | 33 µM (inactive)
10 | ClCc1ccc2ccc3ccc(CCl)nc3c2n1 | 1.69 µM (inactive) | 2.9 µM (inactive) | 1.34 µM (inactive) | 1.8 µM (inactive) | 5.65 µM (inactive) | 1.77 µM (inactive) | 1.46 µM (inactive) | 1.95 µM (inactive) | – | 8.89 µM (inactive) | 1.76 µM (inactive) | 11.9 µM (inactive) | 4.29 µM (inactive) | 2.5 µM (inactive) | 4.76 µM (inactive) | 0.9 µM (active) | 1.72 µM (inactive) | 1.93 µM (inactive) | 2.25 µM (inactive) | 1.7 µM (inactive)
11 | O=C1C(Cl)N(c2ccccc2[N+](=O)[O-])C1c1c[nH]c2ccccc12 (stereo unspecified) | 54.6 µM (inactive) | > 100 µM (inactive) | > 100 µM (inactive) | > 100 µM (inactive) | > 100 µM (inactive) | > 100 µM (inactive) | > 100 µM (inactive) | 27.4 µM (inactive) | – | > 100 µM (inactive) | > 100 µM (inactive) | > 100 µM (inactive) | > 100 µM (inactive) | > 100 µM (inactive) | > 100 µM (inactive) | > 100 µM (inactive) | > 100 µM (inactive) | > 100 µM (inactive) | > 100 µM (inactive) | > 100 µM (inactive)
